Data from the supplement of paper PMC4723716.
Where a name gives a salt, the structure may show the parent alone.

Test system: Plasmodium falciparum NF54 gametocytes
Conditions: 384, incubation time: 72 h
Procedure: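 Known antimalarials and MMV control compounds in dose response against each stage (I–V) […] The fitted EC50 is reported as IC50 in µM; '>' marks the top dose reached without a curve.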

[1] = gametocyte stage: Stage I Dose Response IC50 (µM), assay protocol: TSSA
[2] = gametocyte stage: Stage II Dose Response IC50 (µM), assay protocol: TSSA
[3] = gametocyte stage: Stage III Dose Response IC50 (µM), assay protocol: TSSA
[4] = gametocyte stage: Stage IV Dose Response IC50 (µM), assay protocol: TSSA
[5] = gametocyte stage: Stage V Dose Response IC50 (µM), assay protocol: TSSA
[6] = gametocyte stage: Stage I Dose Response IC50 (µM), assay protocol: SaLSSA
[7] = gametocyte stage: Stage II Dose Response IC50 (µM), assay protocol: SaLSSA
[8] = gametocyte stage: Stage III Dose Response IC50 (µM), assay protocol: SaLSSA
[9] = gametocyte stage: Stage IV Dose Response IC50 (µM), assay protocol: SaLSSA
[10] = gametocyte stage: Stage V Dose Response IC50 (µM), assay protocol: SaLSSA

| Structure (SMILES) | IC50 of gametocyte viability [1] | IC50 of gametocyte viability [2] | IC50 of gametocyte viability [3] | IC50 of gametocyte viability [4] | IC50 of gametocyte viability [5] | IC50 of gametocyte viability [6] | IC50 of gametocyte viability [7] | IC50 of gametocyte viability [8] | IC50 of gametocyte viability [9] | IC50 of gametocyte viability [10] |
| --- | --- | --- | --- | --- | --- | --- | --- | --- | --- | --- |
| C[C@@H]1C[C@@H]([C@H](O)CC2CC(=O)NC(=O)C2)C(=O)[C@@H](C)C1 [Cycloheximide] [listing 1 of 2 here] | 1.23 µM | 2.46 µM | 2.51 µM | 1.92 µM | 4.62 µM | – | – | – | – | – |
| C[C@@H]1C[C@@H]([C@H](O)CC2CC(=O)NC(=O)C2)C(=O)[C@@H](C)C1 [Cycloheximide] [listing 2 of 2 here] | – | – | – | – | – | 1.92 µM | 0.64 µM | 0.913 µM | 0.477 µM | 2.69 µM |
| Nc1ccc(S(=O)(=O)c2ccc(N)cc2)cc1 [Dapsone] | – | – | – | – | – | > 12.5 µM | > 12.5 µM | > 12.5 µM | > 12.5 µM | > 12.5 µM |
| CC(=O)N(O)CCCCCNC(=O)CCC(=O)N(O)CCCCCNC(=O)CCC(=O)N(O)CCCCCN [Deferoxamine mesylate salt] | – | – | – | – | – | > 12.5 µM | > 12.5 µM | > 12.5 µM | > 12.5 µM | > 12.5 µM |
| C[C@H]1c2cccc(O)c2C(=O)C2=C(O)[C@]3(O)C(=O)C(C(N)=O)=C(O)[C@@H](N(C)C)[C@@H]3[C@@H](O)[C@@H]21 [Doxycyclin] | – | – | – | – | – | > 12.5 µM | > 12.5 µM | > 12.5 µM | > 12.5 µM | > 12.5 µM |
| C[C@H]1c2cccc(O)c2C(O)=C2C(=O)[C@]3(O)C(O)=C(C(N)=O)C(=O)[C@@H](N(C)C)[C@@H]3[C@@H](O)[C@@H]21 [Doxycyclin] | > 12.5 µM | > 12.5 µM | > 12.5 µM | > 12.5 µM | > 12.5 µM | – | – | – | – | – |
| CC[C@H](C)[C@H](NC(=O)[C@H]([C@@H](C)CC)N(C)C(C)=O)C(=O)N[C@H](C(=O)N[C@@H](CC(C)C)C(=O)[C@@]1(C)CO1)[C@@H](C)O [Epoxomycin] | – | – | – | – | – | – | – | – | – | 0.0128 µM |
| Cc1cc2nc3c(=O)[nH]c(=O)nc-3n(C[C@H](O)[C@H](O)[C@H](O)CO)c2cc1C [Flavin mononucleotid (Riboflavin)] | – | – | – | – | – | > 12.5 µM | > 12.5 µM | > 12.5 µM | > 12.5 µM | > 12.5 µM |
| CCCCN(CCCC)CCC(O)c1cc2c(Cl)cc(Cl)cc2c2cc(C(F)(F)F)ccc12 (centres undefined) [Halofantrine] [listing 1 of 2 here] | 0.00577 µM | – | – | > 12.5 µM | > 12.5 µM | – | – | – | – | – |
| CCCCN(CCCC)CCC(O)c1cc2c(Cl)cc(Cl)cc2c2cc(C(F)(F)F)ccc12 (centres undefined) [Halofantrine] [listing 2 of 2 here] | – | – | – | – | – | 0.00161 µM | 0.000896 µM | 0.0233 µM | 1.51 µM | 0.0075 µM |
| CCN(CCO)CCCC(C)Nc1ccnc2cc(Cl)ccc12 (centres undefined) [Hydroxychloroquine] | 0.104 µM | 0.139 µM | > 6.25 µM | > 6.25 µM | > 6.25 µM | 0.107 µM | 0.131 µM | > 4.49 µM | > 6.25 µM | > 6.25 µM |
| CC1Cc2c([nH]c3cc(F)c(F)cc23)C2(N1)C(=O)Nc1ccc(Cl)cc12 (centres undefined) [KAF246] | – | – | – | – | – | 0.00139 µM | 0.00186 µM | 0.0021 µM | 0.00177 µM | 0.00235 µM |
| CC1(C)c2nc(-c3ccc(F)cc3)c(Nc3ccc(Cl)cc3)n2CCN1C(=O)CN [KAF(GNF)179] | – | – | – | – | – | 0.341 µM | 0.0641 µM | 0.0199 µM | 0.00915 µM | 0.00336 µM |
| CN(C(=O)c1cn2c(-c3ccc(C#N)cc3)cnc2cn1)c1ccc(C(F)(F)F)cc1 [KAI407] | – | – | – | – | – | 0.593 µM | 0.636 µM | 0.415 µM | 0.329 µM | 0.156 µM |
| CNc1ccc(N(C)C(=O)c2cn3c(-c4ccc(Cl)cc4)cnc3cn2)cc1 [KDU691] | – | – | – | – | – | 0.532 µM | 0.565 µM | 0.354 µM | 0.237 µM | 0.15 µM |
| CCCCN(CCCC)CC(O)c1cc(Cl)cc2c1-c1ccc(Cl)cc1/C2=C/c1ccc(Cl)cc1 (centres undefined) [Lumefantrine] [listing 1 of 2 here] | – | – | – | – | – | 0.0128 µM | 0.0131 µM | 0.015 µM | 0.599 µM | 0.0523 µM |
| CCCCN(CCCC)CC(O)c1cc(Cl)cc2c1-c1ccc(Cl)cc1/C2=C/c1ccc(Cl)cc1 (centres undefined) [Lumefantrine] [listing 2 of 2 here] | 0.0224 µM | 0.0352 µM | 0.0227 µM | > 9.77 µM | > 12.5 µM | – | – | – | – | – |
| OC(c1cc(C(F)(F)F)nc2c(C(F)(F)F)cccc12)C1CCCCN1 (centres undefined) [Mefloquine (+ RS)] | 0.0512 µM | 0.0471 µM | 0.0585 µM | 1.64 µM | 6.34 µM | – | – | – | – | – |
| O[C@@H](c1cc(C(F)(F)F)nc2c(C(F)(F)F)cccc12)[C@H]1CCCCN1 [Mefloquine (+ RS)] | – | – | – | – | – | 0.0379 µM | 0.039 µM | 0.078 µM | 0.579 µM | 0.158 µM |
| CN(C)c1ccc2nc3ccc(=[N+](C)C)cc-3sc2c1 [Methylene Blue trihydrate] | 0.0222 µM | 0.0164 µM | 0.0181 µM | 0.0454 µM | 1.04 µM | – | – | – | – | – |
| CN(C)c1ccc2nc3ccc(N(C)C)cc3[s+]c2c1 [Methylene Blue trihydrate] | – | – | – | – | – | 0.0199 µM | 0.0153 µM | 0.0133 µM | 0.0117 µM | 0.258 µM |
